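48-hour exposure; five concentrations; linearly interpolated endpoints. TGI is the concentration that stops growth completely.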
Experiments:
Assay in all cases: inhibition of tumour cell growth, NCI panel, 48 h
PC-3 prostate = test system: PC-3 prostate
UACC-257 melanoma = test system: UACC-257 melanoma
HL-60(TB) leukemia = test system: HL-60(TB) leukemia
SF-268 CNS = test system: SF-268 CNS
SK-OV-3 ovarian = test system: SK-OV-3 ovarian
HCC-2998 colon = test system: HCC-2998 colon
NCI-H460 lung = test system: NCI-H460 lung
MCF7 breast = test system: MCF7 breast
SF-295 CNS = test system: SF-295 CNS
UO-31 renal = test system: UO-31 renal
U251 CNS = test system: U251 CNS
SK-MEL-5 melanoma = test system: SK-MEL-5 melanoma
ACHN renal = test system: ACHN renal
MDA-MB-231 breast = test system: MDA-MB-231 breast
HOP-62 NSCLC = test system: HOP-62 NSCLC
OVCAR-4 ovarian = test system: OVCAR-4 ovarian
KM12 colon = test system: KM12 colon
RXF 393 renal = test system: RXF 393 renal
OVCAR-8 ovarian = test system: OVCAR-8 ovarian
HCT-15 colon = test system: HCT-15 colon
DU-145 prostate = test system: DU-145 prostate
OVCAR-5 ovarian = test system: OVCAR-5 ovarian
SN12C renal = test system: SN12C renal
K-562 leukemia = test system: K-562 leukemia
UACC-62 melanoma = test system: UACC-62 melanoma
HCT-116 colon = test system: HCT-116 colon
786-0 renal = test system: 786-0 renal
NCI-H23 lung = test system: NCI-H23 lung
EKVX NSCLC = test system: EKVX NSCLC
TK-10 renal = test system: TK-10 renal
COLO 205 colon = test system: COLO 205 colon
CCRF-CEM leukemia = test system: CCRF-CEM leukemia
IGROV1 ovarian = test system: IGROV1 ovarian
MOLT-4 leukemia = test system: MOLT-4 leukemia
SNB-75 CNS = test system: SNB-75 CNS
M14 melanoma = test system: M14 melanoma
BT-549 breast = test system: BT-549 breast
OVCAR-3 ovarian = test system: OVCAR-3 ovarian
SW-620 colon = test system: SW-620 colon
LOX IMVI melanoma = test system: LOX IMVI melanoma
MDA-N = test system: MDA-N
CAKI-1 renal = test system: CAKI-1 renal
SK-MEL-2 melanoma = test system: SK-MEL-2 melanoma
T-47D breast = test system: T-47D breast
HS 578T breast = test system: HS 578T breast
SF-539 CNS = test system: SF-539 CNS
MDA-MB-435 = test system: MDA-MB-435
NCI-H226 lung = test system: NCI-H226 lung
A498 renal = test system: A498 renal
SNB-19 CNS = test system: SNB-19 CNS
SR leukemia = test system: SR leukemia
RPMI-8226 leukemia = test system: RPMI-8226 leukemia
NCI-H522 lung = test system: NCI-H522 lung
HOP-92 NSCLC = test system: HOP-92 NSCLC
NCI/ADR-RES ovarian = test system: NCI/ADR-RES ovarian
A549 NSCLC = test system: A549 NSCLC
SK-MEL-28 melanoma = test system: SK-MEL-28 melanoma
HT29 colon = test system: HT29 colon
MALME-3M melanoma = test system: MALME-3M melanoma

With CC1(C)OC2OC(C(=O)c3ccccc3)C3OC(C)(C)OC3C2O1 (centres undefined) the TGI (PC-3 prostate) was over 100 µM, the TGI (UACC-257 melanoma) was over 100 µM and the TGI (HL-60(TB) leukemia) was over 100 µM. It also gave a TGI (SF-268 CNS) of over 100 µM, a TGI (SK-OV-3 ovarian) of over 100 µM and a TGI (HCC-2998 colon) of over 100 µM. It also gave a TGI (NCI-H460 lung) of over 100 µM, a TGI (MCF7 breast) of over 100 µM and a TGI (SF-295 CNS) of over 100 µM. For the same molecule, the TGI (UO-31 renal) was over 100 µM, the TGI (U251 CNS) was over 100 µM and the TGI (SK-MEL-5 melanoma) was over 100 µM. The TGI (ACHN renal) was over 100 µM, the TGI (MDA-MB-231 breast) was over 100 µM and the TGI (HOP-62 NSCLC) was over 100 µM. For the same molecule, the TGI (OVCAR-4 ovarian) was over 100 µM, the TGI (KM12 colon) was over 100 µM and the TGI (RXF 393 renal) was over 100 µM. It also gave a TGI (OVCAR-8 ovarian) of over 100 µM, a TGI (HCT-15 colon) of over 100 µM and a TGI (DU-145 prostate) of over 100 µM. The TGI (OVCAR-5 ovarian) was over 100 µM, the TGI (SN12C renal) was over 100 µM and the TGI (K-562 leukemia) was over 100 µM. For the same molecule, the TGI (UACC-62 melanoma) was over 100 µM, the TGI (HCT-116 colon) was over 100 µM and the TGI (786-0 renal) was over 100 µM. It also gave a TGI (NCI-H23 lung) of over 100 µM, a TGI (EKVX NSCLC) of over 100 µM and a TGI (TK-10 renal) of over 100 µM. It also gave a TGI (COLO 205 colon) of over 100 µM, a TGI (CCRF-CEM leukemia) of over 100 µM and a TGI (IGROV1 ovarian) of over 100 µM. It also gave a TGI (MOLT-4 leukemia) of over 100 µM, a TGI (SNB-75 CNS) of over 100 µM and a TGI (M14 melanoma) of over 100 µM. For the same molecule, the TGI (BT-549 breast) was over 100 µM, the TGI (OVCAR-3 ovarian) was over 100 µM and the TGI (SW-620 colon) was over 100 µM. For the same molecule, the TGI (LOX IMVI melanoma) was over 100 µM, the TGI (MDA-N) was over 100 µM and the TGI (CAKI-1 renal) was over 100 µM. The TGI (SK-MEL-2 melanoma) was over 100 µM, the TGI (T-47D breast) was over 100 µM and the TGI (HS 578T breast) was over 100 µM. It also gave a TGI (SF-539 CNS) of over 100 µM, a TGI (MDA-MB-435) of over 100 µM and a TGI (NCI-H226 lung) of over 100 µM. It also gave a TGI (A498 renal) of over 100 µM, a TGI (SNB-19 CNS) of over 100 µM and a TGI (SR leukemia) of over 100 µM. For the same molecule, the TGI (RPMI-8226 leukemia) was over 100 µM, the TGI (NCI-H522 lung) was over 100 µM and the TGI (HOP-92 NSCLC) was over 100 µM. The TGI (NCI/ADR-RES ovarian) was over 100 µM.

Work on CC(=O)Nc1ccc(Cc2ccc3[nH]c(=O)cc(C)c3c2)cc1 yielded a TGI (A549 NSCLC) of over 100 µM, a TGI (PC-3 prostate) of over 100 µM and a TGI (UACC-257 melanoma) of over 100 µM. It also gave a TGI (HL-60(TB) leukemia) of over 100 µM, a TGI (SF-268 CNS) of over 100 µM and a TGI (SK-OV-3 ovarian) of over 100 µM. The TGI (NCI-H460 lung) was over 100 µM, the TGI (MCF7 breast) was over 100 µM and the TGI (SF-295 CNS) was over 100 µM. For the same molecule, the TGI (UO-31 renal) was over 100 µM, the TGI (U251 CNS) was over 100 µM and the TGI (SK-MEL-5 melanoma) was over 100 µM. For the same molecule, the TGI (SK-MEL-28 melanoma) was over 100 µM, the TGI (ACHN renal) was over 100 µM and the TGI (MDA-MB-231 breast) was over 100 µM. For the same molecule, the TGI (HOP-62 NSCLC) was over 100 µM, the TGI (OVCAR-4 ovarian) was over 100 µM and the TGI (KM12 colon) was over 100 µM. It also gave a TGI (RXF 393 renal) of over 100 µM, a TGI (OVCAR-8 ovarian) of over 100 µM and a TGI (HCT-15 colon) of over 100 µM. The TGI (DU-145 prostate) was over 100 µM, the TGI (OVCAR-5 ovarian) was over 100 µM and the TGI (SN12C renal) was over 100 µM. For the same molecule, the TGI (K-562 leukemia) was over 100 µM, the TGI (UACC-62 melanoma) was over 100 µM and the TGI (HCT-116 colon) was over 100 µM. It also gave a TGI (786-0 renal) of 98.2 µM, a TGI (NCI-H23 lung) of over 100 µM and a TGI (EKVX NSCLC) of over 100 µM. The TGI (TK-10 renal) was over 100 µM, the TGI (COLO 205 colon) was over 100 µM and the TGI (CCRF-CEM leukemia) was over 100 µM. For the same molecule, the TGI (IGROV1 ovarian) was over 100 µM, the TGI (MOLT-4 leukemia) was over 100 µM and the TGI (SNB-75 CNS) was 28.1 µM. For the same molecule, the TGI (M14 melanoma) was over 100 µM, the TGI (BT-549 breast) was over 100 µM and the TGI (OVCAR-3 ovarian) was over 100 µM. The TGI (SW-620 colon) was over 100 µM, the TGI (LOX IMVI melanoma) was over 100 µM and the TGI (HT29 colon) was over 100 µM. The TGI (MDA-N) was over 100 µM, the TGI (CAKI-1 renal) was over 100 µM and the TGI (SK-MEL-2 melanoma) was 77.7 µM. For the same molecule, the TGI (T-47D breast) was over 100 µM, the TGI (HS 578T breast) was over 100 µM and the TGI (SF-539 CNS) was over 100 µM. It also gave a TGI (MDA-MB-435) of over 100 µM, a TGI (NCI-H226 lung) of over 100 µM and a TGI (A498 renal) of over 100 µM. For the same molecule, the TGI (SNB-19 CNS) was over 100 µM, the TGI (SR leukemia) was over 100 µM and the TGI (RPMI-8226 leukemia) was over 100 µM. It also gave a TGI (NCI-H522 lung) of over 100 µM, a TGI (HOP-92 NSCLC) of over 100 µM and a TGI (MALME-3M melanoma) of over 100 µM. The TGI (NCI/ADR-RES ovarian) was over 100 µM.

Work on Cc1sc2nc3n(c(=O)c2c1C)N=C(c1ccccc1)CS3 yielded a TGI (A549 NSCLC) of over 100 µM, a TGI (PC-3 prostate) of over 100 µM and a TGI (UACC-257 melanoma) of over 100 µM. It also gave a TGI (HL-60(TB) leukemia) of over 100 µM, a TGI (SF-268 CNS) of over 100 µM and a TGI (SK-OV-3 ovarian) of over 100 µM. It also gave a TGI (HCC-2998 colon) of over 100 µM, a TGI (NCI-H460 lung) of over 100 µM and a TGI (MCF7 breast) of over 100 µM. For the same molecule, the TGI (SF-295 CNS) was over 100 µM, the TGI (UO-31 renal) was over 100 µM and the TGI (U251 CNS) was over 100 µM. For the same molecule, the TGI (SK-MEL-5 melanoma) was over 100 µM, the TGI (SK-MEL-28 melanoma) was over 100 µM and the TGI (ACHN renal) was over 100 µM. The TGI (MDA-MB-231 breast) was over 100 µM, the TGI (HOP-62 NSCLC) was over 100 µM and the TGI (OVCAR-4 ovarian) was over 100 µM. For the same molecule, the TGI (KM12 colon) was over 100 µM, the TGI (RXF 393 renal) was over 100 µM and the TGI (OVCAR-8 ovarian) was over 100 µM. It also gave a TGI (HCT-15 colon) of over 100 µM, a TGI (DU-145 prostate) of over 100 µM and a TGI (OVCAR-5 ovarian) of over 100 µM. The TGI (SN12C renal) was over 100 µM, the TGI (K-562 leukemia) was over 100 µM and the TGI (UACC-62 melanoma) was over 100 µM. For the same molecule, the TGI (HCT-116 colon) was over 100 µM, the TGI (786-0 renal) was over 100 µM and the TGI (NCI-H23 lung) was over 100 µM. It also gave a TGI (EKVX NSCLC) of over 100 µM, a TGI (TK-10 renal) of over 100 µM and a TGI (COLO 205 colon) of over 100 µM. It also gave a TGI (CCRF-CEM leukemia) of over 100 µM, a TGI (IGROV1 ovarian) of over 100 µM and a TGI (MOLT-4 leukemia) of over 100 µM. The TGI (SNB-75 CNS) was over 100 µM, the TGI (BT-549 breast) was over 100 µM and the TGI (OVCAR-3 ovarian) was over 100 µM. For the same molecule, the TGI (SW-620 colon) was over 100 µM, the TGI (LOX IMVI melanoma) was over 100 µM and the TGI (HT29 colon) was over 100 µM. The TGI (MDA-N) was over 100 µM, the TGI (CAKI-1 renal) was over 100 µM and the TGI (T-47D breast) was over 100 µM. The TGI (HS 578T breast) was over 100 µM, the TGI (SF-539 CNS) was over 100 µM and the TGI (MDA-MB-435) was over 100 µM. For the same molecule, the TGI (NCI-H226 lung) was over 100 µM, the TGI (A498 renal) was over 100 µM and the TGI (SR leukemia) was over 100 µM. For the same molecule, the TGI (RPMI-8226 leukemia) was over 100 µM, the TGI (NCI-H522 lung) was over 100 µM and the TGI (HOP-92 NSCLC) was over 100 µM. For the same molecule, the TGI (MALME-3M melanoma) was over 100 µM and the TGI (NCI/ADR-RES ovarian) was over 100 µM.

— PubChem BioAssay (NCI)
